Measurements taken from US11084783B2, “O-alkyl-benzylideneguanidine derivatives and therapeutic use for the treatment of disorders associated with an accumulation of misfolded proteins” (INFLECTIS BIOSCIENCE, priority 2014, dated 2021).
Blank lines part the entries; values can stand above or below the compound they belong to.

What was measured:
INS1 insulinoma cell = test: INS1 cell line cytoprotection from ER stress (tunicamycin); type: cell-based; conditions: 6 hour exposure to tunicamycin 2.5 μg/mL, different concentrations, viability 72h
Description: (§1) Cells were plated in 96 well plates at a density of 0.5.10^6 cells/mL for Min6 cell line, 0,4.10^6 cells/mL for INS1 cell line the day before the treatment. ER stress was elicited by addition of 2.5 μg/mL tunicamycin (Sigma Aldrich) together with phosphatases inhibitors. Media were changed 6h later with fresh media and the cytoprotection was maintained by the addition of phosphatases inhibitors. Cell viability was assessed by measuring the reduction of WST-8 into formazan using Cell Counting Kit-8 (Sigma) according to the supplier's recommendation, 72h after tunicamycin treatment.

human alpha2A receptor = molecular target: T1, human alpha2A receptor (Homo sapiens, UniProt P08913); test: Functional GPCR assay for adrenergic α2A receptor (CellKey detection method); type: cell-based; conditions: agonist activity, CHO cells expressing human alpha2A receptor, impedance (CellKey); read-out: Functional adrenergic alpha2 receptor assay EC50
T1 construct: CHO cells endogenously expressing human alpha2A receptor; endogenous in cells; host or cells: CHO cells
T1 sequence (P08913 1-465): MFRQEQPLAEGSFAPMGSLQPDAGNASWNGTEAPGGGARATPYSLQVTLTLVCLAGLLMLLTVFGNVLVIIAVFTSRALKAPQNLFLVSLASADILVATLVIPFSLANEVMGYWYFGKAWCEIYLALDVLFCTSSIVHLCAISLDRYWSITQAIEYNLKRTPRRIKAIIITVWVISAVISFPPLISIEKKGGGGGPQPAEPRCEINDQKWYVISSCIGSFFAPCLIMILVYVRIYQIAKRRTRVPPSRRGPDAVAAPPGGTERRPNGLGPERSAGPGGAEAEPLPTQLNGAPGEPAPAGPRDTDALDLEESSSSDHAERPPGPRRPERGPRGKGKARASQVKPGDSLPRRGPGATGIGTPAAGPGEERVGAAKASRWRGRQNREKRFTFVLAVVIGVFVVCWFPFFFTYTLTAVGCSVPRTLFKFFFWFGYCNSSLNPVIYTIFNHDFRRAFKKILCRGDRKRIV
Description: The agonist activity of compounds was evaluated on CHO cells […] expressing human alpha2A receptor and was determined by measuring their effects on impedance modulation using the CellKey detection method. Cells were seeded onto 96-well plate at density of 6×10^4 cells/well in HBSS buffer (Invitrogen)+20 mM HEPES (Invitrogen) with 0.1% BSA and are allowed to equilibrate for 60 min at 28° C. before the start of the experiment. Plates were placed onto the system and measurements were made at a temperature of 28° C. Solutions were added simultaneously to all 96 wells using an integrated fluidics system: HBSS (basal control), reference agonist at 100 nM (stimulated control), reference agonist (EC50 determination) or the test compounds. Impedance measurements are monitored for 10 minutes after ligand addition. The standard reference agonist is epinephrine, which is tested in each experiment at several concentrations to generate a concentration-response curve from which its EC50 value is calculated.
Dose-response data from test compounds were analysed with Hill software using non-linear regression analysis of the concentration-response curves generated with mean replicate values using Hill equation curve fitting.

Min6 insulinoma cell = test: Min6 cell line cytoprotection from ER stress (tunicamycin); type: cell-based; conditions: 6 hour exposure to tunicamycin 2.5 μg/mL, different concentrations, viability 72h
Description: as §1

HeLa cells [1] = test: Cytoprotection from ER stress (tunicamycin), cell viability by WST-8; type: cell-based; parameters: key to Cytoprotection from ER stress compared to guanabenz: +: lower cytoprotective effect compared to Guanabenz; ++: similar cytoprotective effect compared to Guanabenz; +++: higher cytoprotective effect compared to Guanabenz; conditions: HeLa cells, 6 hour exposure to tunicamycin 5 μg/mL, compounds 0.5-10 μM, viability 48 h or 72 h
Description: Cytoprotection against ER stress can be measured by a suitable assay. For example, cytoprotection can be measured in HeLa cells in which ER stress is elicited by the addition of media containing tunicamycin, a mixture of homologous nucleoside antibiotics that inhibits the UDP-HexNAc: polyprenol-P HexNAc-1-P family of enzymes and is used to induce unfolded protein response. Cell viability can be detected in the presence and absence of inhibitor compounds after a set period of time, by measuring the reduction of WST-8 into formazan using a standard cell viability kit (such as Cell Viability Counting Kit-8 from Dojindo). Cytoprotection from ER stress is measured in terms of the percentage increase in viable cells (relative to control) after ER stress. Further details of a suitable assay are set forth in the accompanying Examples section.
This assay is described in Tsaytler et al. (Science 2011). HeLa Cells were cultured in Eagle's Minimum Essential Medium (EMEM) supplemented with Glutamine, Sodium Pyruvate, Non-Essential Amino Acids, Penicillin and Streptomycin containing 10% Foetal Bovine Serum (FBS), at 37° C. in 5% CO2 atmosphere. Cells were plated in 96 well plates at a density of 17,000 cells/mL the day before the treatment. ER stress was elicited by addition of 5 μg/mL tunicamycin (Sigma-Aldrich) together with PPP1R15A inhibitors (0.5-10 μM). Media were changed 6h later with fresh media and the cytoprotection was maintained by the addition of PPP1R15A inhibitors (0.5-10 μM). Cell viability was assessed by measuring the reduction of WST-8 into formazan using Cell Counting Kit-8 (Sigma) according to the supplier's recommendation, 48 h or 72h after tunicamycin treatment. Cytoprotection from ER stress is measured in terms of cytoprotective potency effect compared to the reference compound Guanabenz (Tsaytler et al., Science 2011) after ER stress: • ‘+’ no cytoprotective effect; • ‘+’ lower cytoprotective effect compared to Guanabenz; • ‘++’ similar cytoprotective effect compared to Guanabenz; • ‘+++’ higher cytoprotective effect compared to Guanabenz.
Table 1 summarizes the results of cytoprotective effect of different compounds of the invention, compared to guanabenz, after the stress induced by a 6 hour exposure of tunicamycin.

[2] = system: mouse embryonic fibroblasts lipofected with poly I:C; test: In vitro inflammation/infection model: poly I:C induced mouse embryonic fibroblasts; type: cell-based; conditions: 25 μM, 6h, IFN-beta ELISA in culture supernatants
Description: Mouse Embryonic Fibroblasts (MEFs) were lipofected with poly I:C and treated with […] compounds of the invention (25 μM) for 6h. After 6h of culture, elF2alpha-phosphorylation (elF2a-P) and PPP1R15A (GADD34) expression was monitored by western blotting, while type-1 Interferon(IFN)-beta production was quantified in culture supernatants by ELISA. Control (nt) and poly I:C/DMSO are respectively negative and positive controls. Poly I:C (polyinosinic:polycytidylic acid or polyinosinic-polycytidylic acid sodium salt) is an immunostimulant used to simulate viral infections. Poly I:C which is structurally similar to double-stranded RNA, is known to interact with toll-like receptor 3 which is expressed in the intracellular compartments of B-cells and dendritic cells. Guanabenz (25 μM) was used as reference inhibitory compound.
MEFs were cultured in DMEM, 10% FCS (HyClone, Perbio), 100 units/ml penicillin, 100 μg/ml streptomycin, 2 mM glutamine, 1× MEM non-essential amino acids and 50 μM 2-mercaptoethanol. MEFS were treated for the indicated time with 10 μg/ml poly I:C (InvivoGen) in combination with lipofectamine 2000 (Invitrogen).
Cells were lysed in 1% Triton X-100, 50 mM Hepes, 10 mM NaCl, 2.5 mM MgCl2, 2 mM EDTA, 10% glycerol, supplemented with Complete Mini Protease Inhibitor Cocktail Tablets (Roche). Protein quantification was performed using the BCA Protein Assay (Pierce). 25-50 μg of Triton X-100-soluble material was loaded on 2%-12% gradient or 8% SDS-PAGE before immunoblotting and chemi-luminescence detection (SuperSignal West Pico Chemi-luminescent Substrate, Pierce). Rabbit polyclonal antibodies recognizing GADD34 (C-19) were from Santa Cruz Biotechnology and anti-elF2alpha[pS^52] were from Invitrogen.
IFN-beta quantification in culture supernatant was performed using the Mouse Interferon Beta ELISA kit (PBL Interferon Source) according to manufacturer instructions.
Normal response of MEFs to poly I:C is characterized by PPP1R15A expression, increase in elF2alpha-P (variable in time and related to the levels PPP1R15A expression) mediated by PKR activation and type-I IFN production (range 500 to 700 pg/ml). Knock out PPP1R15A MEFs are unable to produce this cytokine in response to poly I:C.
The potency of compounds of the invention to inhibit PPP1R15A was evaluated by measuring the increase of elF2alpha phosphorylation, the decrease of PPP1R15A expression due to its own pharmacological inhibition resulting in general protein synthesis inhibition and type-I IFN production.

Min6 cells = test: Protection against accumulation of misfold prone Insulin Akita; type: cell-based; conditions: Min6 cells nucleofected with Insulin Akita, viability 9 days after treatment
Description: Min6 cells were nucleofected with Insulin^Akita mutant constructs and seeded in 96 well-plates at 300,000 cells/mL and 24h later, cells were treated with molecules or left untreated. As a control, cells were nucleofected with non-relevant plasmid. 6 days later, a selective agent was added (G418). Cell viability was assessed by measuring the reduction of WST-8 into formazan using Cell Counting Kit-8 (Sigma) according to the supplier's recommendation, 9 days after treatment.

HeLa cells [3] = conditions: tunicamycin; Tsaytler et al., Science 2011; cited from earlier work

- EC50 (human alpha2A receptor): > 33.3 µM
Compound: CCONC(=N)N/N=C/c1ccncc1Cl [Compound 16, 2-[(3-chloropyridin-4-yl)methylidene]-N-ethoxyhydrazinecarboximidamide]
- prevention of INS1 insulinoma cell death (FIG. 8) (INS1 insulinoma cell): prevent INS1 insulinoma cell death
- prevention of Min6 insulinoma cell death (FIG. 7) (Min6 insulinoma cell): prevent Min6 insulinoma cell death
- Cytoprotection from ER stress compared to guanabenz (HeLa cells [1]): +
- prevention of type-I IFN production (FIG. 9) [2]: prevent type-I IFN production
- prevention of cell death associated with accumulation of misfold prone Insulin Akita (FIG. 6) (Min6 cells): prevent cell death

Compound: CCC1(C2=NCCN2)Cc2ccccc2O1 (centres unmarked) [efaroxan]
- protection of cells from cytotoxic ER stress (HeLa cells [3]): Neither the α2-adrenergic receptor agonist clonidine, nor the α2-adrenergic receptor antagonist efaroxan protected cells

Compound: Clc1cccc(Cl)c1N=C1NCCN1 [clonidine]
- protection of cells from cytotoxic ER stress (HeLa cells [3]): Neither the α2-adrenergic receptor agonist clonidine, nor the α2-adrenergic receptor antagonist efaroxan protected cells
